# pIC50: −log10 of the molar value.
# Columns and labels:
# [1] = tested on: MDA-468 cells; test: MTT cell viability assay, MDA-468 breast cancer cells; assay type: cell-based; conditions: MDA-468, 96 hours, cisplatinum 1-25 μM
# Protocol: (§1) The breast cancer cell MDA 468 and MDANQ01, K562 and human lymphoblastic cell line (MOLT-4) were grown in RPMI 1640 medium supplemented with 1% L-glutamine, 1% of 100 Units/ml penicillin and 0.1 mg/ml streptomycin and 10% inactivated FCS. While the […] cell line HeLa and fibroblast cell line 3T3 were grown in DMEM medium supplemented with 20% inactivated FCS, 1% L-glutamine, 1% of 100 units/ml penicillin & 0.1 mg/ml streptomycin. All cell lines were maintained in a humidified incubator with an atmosphere of 95% air and 5% CO2 at 37° C.
# (§2) Cell viability was determined by the MTT (3-(4,5 dimethylthiazol2-yl)-2,5 diphenyltetrazolium bromide) test method. […] The metabolic activity of each well was determined by the (MTT) assay and compared to those of untreated cells. […] Cell viability was determined based on mitochondrial conversion of 3[4,5-dimethylthiazol-2-yl] […] The plates were gently agitated until the colour reaction was uniform and the absorbance was measured at 570 nm using a multi-well plate reader, Sigma Plot 2000 software was used for data analysis. The cell viability effects from exposure of cells to each concentration of crude whelk GAGs, commercial GAGs and cisplatinum were analysed as percentages of the control cell absorbance, which were obtained from control wells plated in RPMI, 1% L-glutamate and 10% FCS media. […]
# [2] = tested on: MDANQ01 cells; test: MTT cell viability assay, MDANQ01 breast cancer cells; assay type: cell-based; conditions: MDANQ01, 96 hours, cisplatinum 1-25 μM
# Protocol: as §1, §2
structure (smiles),measurement,setting,value
N.N.[Cl][Pt][Cl] [cisplatinum],pIC50,[1],6.06
same,pIC50,[2],6.20

# Reference: patent US20170312305A1, “PHARMACEUTICAL EXTRACTS AND USES THEREOF” (UNIVERSITY OF SALFORD ENTERPRISES LIMITED, priority 2014, published 2017)
